Structures can show the parent of a compound that is named as a salt.
Legend:
[1] = solubility in aqueous medium; type: physicochemical; settings: compared to naltrexone itself
Text: Since only compounds containing a carbonyl moiety can react with the bisulfite anion nalmefene cannot undergo to such reaction. The bisulfite adduct of naltrexone is more soluble than naltrexone itself thus permitting the removal of this impurity.

[2] = crystalline form; improves API stability under storage and formulation conditions; cited from earlier work
[3] = hydrochloride salt, doses of 10 to 40 mg taken when the patient experiences a craving for alcohol; cited from earlier work
[4] = compared to naltrexone; cited from earlier work
[5] = compared to naltrexone; cited from earlier work; remark: listed apart in the source
[6] = compared to naltrexone; cited from earlier work; remark: listed apart in the source

In the case of `O=S(=O)(O)C1(O)CC[C@@]2(O)[C@H]3Cc4ccc(O)c5c4[C@@]2(CCN3CC2CC2)[C@H]1O5` (stereo partly drawn) [bisulfite adduct of naltrexone], the solubility [1] is reported as “more soluble”.
In the case of `C=C1CC[C@@]2(O)[C@H]3Cc4ccc(O)c5c4[C@@]2(CCN3CC2CC2)[C@H]1O5` [nalmefene hydrochloride dihydrate], the hygroscopic properties [2] is listed as “non-hygroscopic”.
In the case of `C=C1CC[C@@]2(O)[C@H]3Cc4ccc(O)c5c4[C@@]2(CCN3CC2CC2)[C@H]1O5` [nalmefene, 17-(cyclopropylmethyl)-4,5-alpha-epoxy-6-methylenemorphinan-3,14-diol hydrochloride], the “effect in the management of alcohol dependency” value [3] is given as “good effect”, the dose-dependent liver toxicity [4] is given as “absence” and the oral bioavailability [5] is given as “higher”. For the same molecule, the half-life [6] was “longer”.
